Data reported in patent US6482982B1, “Halogenated antituberculosis agents” (University of Sciences of Philadelphia, priority 2001, dated 2002).
≈ marks a conversion by molar mass, not a printed value. Where “and” joins values, the source holds several entries; their conditions need not be identical. Equal values may be shown once. Read-outs that look alike come from different tables or passages of the source.

Assays:
[1] = test system: Mycobacterium tuberculosis H37Rv (ATCC 27294); assay: Primary screening of anti-mycobacterial activity (Bactec); assay type: cell-based; parameters: % inhibition: concentration or dose not given beside the values; details: for MIC: Mycobacterium tuberculosis
M. tuberculosis H37Rv [2] = assay: MIC determination by Microplate Alamar Blue Assay (MABA) against H37Rv; assay type: cell-based, Mycobacterium tuberculosis; details: for MIC: Mycobacterium tuberculosis
VERO cells [3] = assay: cells; details: Chlorocebus sabaeus
M. tuberculosis H37Rv [4] = assay: Minimum bactericidal concentration (MBC) against H37Rv; assay type: cell-based, Mycobacterium tuberculosis
VERO cells [5] = details: for SI (selectivity index, IC50:MIC ratio): IC50 in VERO cells to MIC H37Rv
M. tuberculosis Erdman = assay: MIC (MABA) against M. tuberculosis Erdman; assay type: cell-based; details: Mycobacterium tuberculosis, Alamar assay
[6] = test system: M. tuberculosis Erdman (ATCC 35801); assay: Killing of M. tuberculosis Erdman in monolayers of mouse bone marrow macrophages
Protocol: Compounds were then tested for killing of M. tuberculosis Erdman (ATCC 35801) in monolayers of mouse bone marrow macrophages.

[7] = preliminary anti-TB test (primary screening), Bactec assay, read-out: MIC
[8] = preliminary anti-TB test (primary screening), Bactec assay
[9] = H37RV, comparison with parent drug, read-out: MIC against M. tuberculosis H37Rv (determined by MABA system)
[10] = read-out: IC50 (overt toxicity)
[11] = Alamar assay, actual MIC at lower concentrations, H37Rv, read-out: MIC
[12] = read-out: IC50 (reference drugs, Comments column)

Molecule: CC(=O)Nc1ccc(/C=N/NC(N)=S)cc1Br [Compound 29, 4-Acetamido-3-bromobenzaldehyde thiosemicarbazone]
- MIC [1, 7]: < 6.25 mg/L
- Activity [1, 8]: Positive

Molecule: Nc1ccc(C(=O)O)c(O)c1 [p-aminosalicylic acid, reference compound]
- MIC (M. tuberculosis H37Rv [2]; [9]): 1.25 mg/L (≈ 8.16 µM)

Molecule: CC(=O)Nc1ccc(/C=N/NC(N)=S)cc1I [Compound 34, 4-Acetamido-3-iodobenzaldehyde thiosemicarbazone]
- MIC [1, 7]: < 6.25 mg/L
- Activity [1, 8]: Positive

Molecule: thiacetazone [reference compound]
- MIC against M. tuberculosis H37Rv (determined by MABA system) (M. tuberculosis H37Rv [2]; comparison with parent drug): > 2.0 mg/L

Molecule: Nc1cc(O)c(C(=O)O)cc1F [Compound 12, 4-Amino-5-fluorosalicylic Acid]
- MIC [1]: < 12.5 mg/L
- % inhibition [1, 8]: 94%
- Activity [1, 8]: Positive
- IC50 (VERO cells [3]; [10]): > 62.5 mg/L
- H37Rv MBC (M. tuberculosis H37Rv [4]): > 200 mg/L
- % inh. (M. tuberculosis H37Rv [2]; Alamar assay, H37Rv): 94%
- MIC (M. tuberculosis H37Rv [2]; [9]): ≤ 3.13 mg/L
- MIC (M. tuberculosis H37Rv [2]; [11]): 6.25 mg/L (≈ 36.5 µM)
- SI (selectivity index, IC50:MIC ratio) (VERO cells [5]): >10
- MIC (M. tuberculosis Erdman): 12.5 mg/L (≈ 73 µM)

Molecule: CC(=O)Nc1ccc(/C=N/NC(N)=S)cc1F [Compound 16, 4-Acetamido-3-fluorobenzaldehyde thiosemicarbazone]
- EC99 ([6]; 99% reduction in colony forming units at seven days, mouse bone marrow macrophages): >3.2
- EC90 ([6]; Mycobacterium tuberculosis, ATCC35801|ERDMAN, Bone marrow macrophage, in Mus musculus, 168 h): 1.7 mg/L (≈ 6.69 µM)
- MIC [1, 7]: < 12.5 mg/L
- % inhibition [1, 8]: 99% and > 90%
- Activity [1, 8]: Positive
- IC50 (VERO cells [3]; [10]): > 62.5 mg/L
- H37Rv MBC (M. tuberculosis H37Rv [4]): 6.25 mg/L
- % inh. (M. tuberculosis H37Rv [2]; Alamar assay, H37Rv): 99%
- MIC (M. tuberculosis H37Rv [2]; [9]): ≤ 0.1 mg/L
- MIC (M. tuberculosis H37Rv [2]; [11]): 0.2 mg/L (≈ 0.787 µM)
- activity against M. Tuberculosis (in words) (M. tuberculosis H37Rv [2]; general statement): highly active
- SI (selectivity index, IC50:MIC ratio) (VERO cells [5]): > 312.5
- SI (selectivity index, IC50:MIC ratio) (VERO cells [5]; listed as Comp. 16): >312.5
- toxicity (in words) (VERO cells [5]; general statement): non-toxic
- MIC (M. tuberculosis Erdman): 0.2 mg/L (≈ 0.787 µM)

Molecule: CC(=O)Nc1ccc(/C=N/NC(N)=S)c(F)c1 [Compound 17, 4-Acetamido-2-fluorobenzaldehyde thiosemicarbazone]
- MIC [1, 7]: < 6.25 mg/L
- Activity [1, 8]: Positive

Molecule: CC(=O)Nc1ccc(/C=N/NC(N)=S)cc1Cl [Compound 25, 4-Acetamido-3-chlorobenzaldehyde thiosemicarbazone]
- MIC [1, 7]: < 6.25 mg/L
- Activity [1, 8]: Positive

Molecule: CO[C@H]1/C=C/O[C@@]2(C)Oc3c(C)c(O)c4c(O)c(c(/C=N/N5CCN(C)CC5)c(O)c4c3C2=O)NC(=O)/C(C)=C\C=C\[C@H](C)[C@H](O)[C@@H](C)[C@@H](O)[C@@H](C)[C@H](OC(C)=O)[C@@H]1C [rifampicin, reference compound]
- IC50 (VERO cells [3]; [12]): 77.7 mg/L (≈ 94.4 µM)
- MIC (M. tuberculosis H37Rv [2]; [11]): 0.015 mg/L (≈ 0.0182 µM)

Molecule: COC(=O)c1cc(F)c(NC(C)=O)cc1O [Compound 11, Methyl 4-acetamido-5-fluorosalicylate]
- MIC [1, 7]: > 12.5 mg/L
- % inhibition [1, 8]: 0%
- Activity [1, 8]: Negative

Molecule: NNC(=O)c1ccncc1 [INH, isoniazid, reference compound]
- IC50 (VERO cells [3]; [12]): 602 mg/L (≈ 4390 µM)
